Measured values published in publication PMC11443518, “Undescribed Amaryllidaceae Alkaloids from Zephyranthes citrina and Their Cytotoxicity” (Journal of Natural Products, 2024).
Where two headings read alike, the source gives them in different places.

Experiments:
[1] = test system: MOLT-4 (acute lymphoblastic leukemia); assay: WST-1 cell proliferation assay, cytotoxicity screening; type: cell-based, human; conditions: for activity at 10 µM: Homo sapiens, read-out: growth percent (GP) MOLT-4
Source text: (§1) Selected human tumor and nontumor cell lines Jurkat (acute T-cell leukemia), MOLT-4 (acute lymphoblastic leukemia), A549 (lung carcinoma), HT-29 (colorectal adenocarcinoma), PANC-1 (pancreas epithelioid carcinoma), A2780 (ovarian carcinoma), HeLa (cervix adenocarcinoma), MCF-7 (breast adenocarcinoma), SAOS-2 (osteosarcoma) and MRC-5 (nontumor lung fibroblasts) were purchased from European Collection of Authenticated Cell Cultures (ECACC, Salisbury, UK) and cultured according to the provider’s culture method guidelines. […] The cells in low passage number (nontumor primary cell line MRC-5 was used for a maximum of 10 passages and cancer cell lines were used for a maximum of 20 passages) and in an exponential growth phase were used for this study.
(§2) Each cell line was seeded at a previously established optimal density (1 × 10^3 to 50 × 10^3 cells per well) in a 96-well plate (TPP, Trasadingen, Switzerland) and cells were allowed to settle overnight. During screening tests for cytotoxicity, cells were treated with alkaloids at a final concentration of 10 μM for 48 h. Doxorubicin (Sigma-Aldrich, St. Louis, USA), at a concentration of 1 μM, was used as a positive control. At the end of the culture period, the WST-1 proliferation assay (Roche, Basel, Switzerland) was performed according to the manufacturer’s protocol. The absorbance was determined using a Tecan Spark microplate reader (Tecan, Männedorf, Switzerland). Each value is the mean of three independent experiments and represents the percentage of the proliferation of control, nontreated cells (100%). The growth percent (GP) value as the mean of the proliferation decrease was calculated for each cell line and derivative tested.

[2] = test system: MCF-7 (breast adenocarcinoma); assay: as above; type: cell-based, human; conditions: for activity at 10 µM: Homo sapiens, read-out: growth percent (GP) MCF-7
Source text: as §1, §2

[3] = test system: Jurkat (acute T-cell leukemia); assay: as above; type: cell-based; conditions: Homo sapiens, 48 h, read-out: growth percent (GP) Jurkat
Source text: as §1, §2

A549 (lung carcinoma) = assay: as above; type: cell-based; conditions: Homo sapiens, read-out: growth percent (GP) A549
Source text: as §1, §2

[4] = test system: MRC-5 (nontumor lung fibroblasts); assay: as above; type: cell-based; conditions: Homo sapiens, read-out: growth percent (GP) MRC-5
Source text: as §1, §2

[5] = test system: PANC-1 (pancreas epithelioid carcinoma); assay: as above; type: cell-based; conditions: Homo sapiens, read-out: growth percent (GP) PANC-1
Source text: as §1, §2

[6] = test system: HT-29 (colorectal adenocarcinoma); assay: as above; type: cell-based; conditions: Homo sapiens, read-out: growth percent (GP) HT-29
Source text: as §1, §2

[7] = test system: HeLa (cervix adenocarcinoma); assay: as above; type: cell-based; conditions: Homo sapiens, 48 h, read-out: growth percent (GP) HeLa
Source text: as §1, §2

[8] = test system: A2780 (ovarian carcinoma); assay: as above; type: cell-based; conditions: Homo sapiens, read-out: growth percent (GP) A2780
Source text: as §1, §2

SAOS-2 (osteosarcoma) = assay: as above; type: cell-based; conditions: Homo sapiens, read-out: growth percent (GP) SAOS-2
Source text: as §1, §2

[9] = test system: nine human tumor and one nontumor cell lines; assay: Cytotoxicity screening across the whole panel of cell lines; type: cell-based; conditions: for activity at 10 µM: Homo sapiens, read-out: GP value across the tested cell lines
Source text: Concerning the cytotoxicity of alkaloids isolated from Z. citrina, initially, Prakash and Vedanayaki investigated the MeOH extract of the bulbs for its in vitro cytotoxic activity using the MTT assay against three human cancer cell lines from different tissue origins: cervical cancer (HeLa), breast cancer (MCF-7), and oral squamous carcinoma (SCC-9). […] In this context, and to assess potential negative effects on human cell cultures, compounds 1, and 3–27 were screened in our study for cytotoxicity using a 10 μM single-dose regimen. The results were compared with those using the clinically approved antineoplastic agent doxorubicin at 1 μM. The effect on cell growth was investigated on nine human tumor and one nontumor cell lines, namely Jurkat (acute T-cell leukemia), MOLT-4 (acute lymphoblastic leukemia), A549 (lung carcinoma), HT-29 (colorectal adenocarcinoma), PANC-1 (pancreas epithelioid carcinoma), A2780 (ovarian carcinoma), HeLa (cervix adenocarcinoma), MCF-7 (breast adenocarcinoma), SAOS-2 (osteosarcoma) and MRC-5 (nontumor lung fibroblasts). […] No toxicity is valuable information, especially for compound 18, as it is a potent inhibitor of hAChE and hBChE.[27]
Selected human tumor and nontumor cell lines Jurkat (acute T-cell leukemia), MOLT-4 (acute lymphoblastic leukemia), A549 (lung carcinoma), HT-29 (colorectal adenocarcinoma), PANC-1 (pancreas epithelioid carcinoma), A2780 (ovarian carcinoma), HeLa (cervix adenocarcinoma), MCF-7 (breast adenocarcinoma), SAOS-2 (osteosarcoma) and MRC-5 (nontumor lung fibroblasts) were purchased from European Collection of Authenticated Cell Cultures (ECACC, Salisbury, UK) and cultured according to the provider’s culture method guidelines. All cell lines were maintained at 37 °C in a humidified 5% carbon dioxide and 95% air incubator. The cells in low passage number (nontumor primary cell line MRC-5 was used for a maximum of 10 passages and cancer cell lines were used for a maximum of 20 passages) and in an exponential growth phase were used for this study.
as §2

[10] = 10 μM single dose, 48-h interval, all tested cell lines
[11] = c = 10 μM, 48 h, % of proliferation of nontreated control
[12] = MOLT-4, c = 10 μM, 48 h, % of proliferation of nontreated control
[13] = MCF7, c = 10 μM, 48 h, % of proliferation of nontreated control
[14] = c = 10 μM, % of proliferation of nontreated control
[15] = A549, c = 10 μM, 48 h, % of proliferation of nontreated control
[16] = MRC5, c = 10 μM, 48 h, % of proliferation of nontreated control
[17] = PANC-1, c = 10 μM, 48 h, % of proliferation of nontreated control
[18] = HT-29, c = 10 μM, 48 h, % of proliferation of nontreated control
[19] = A2780, c = 10 μM, 48 h, % of proliferation of nontreated control
[20] = SAOS-2, c = 10 μM, 48 h, % of proliferation of nontreated control

Row | SMILES | activity at 10 µM ([1]; MOLT-4, 48 h) [%] | activity at 10 µM ([2]; MCF7, 48 h) [%] | activity at 10 µM [3] [%] | activity at 10 µM (A549 (lung carcinoma); A549, 48 h) [%] | activity at 10 µM ([4]; MRC5, 48 h) [%] | activity at 10 µM ([5]; PANC-1, 48 h) [%] | activity at 10 µM ([6]; HT-29, 48 h) [%] | activity at 10 µM [7] [%] | activity at 10 µM ([8]; A2780, 48 h) [%] | activity at 10 µM (SAOS-2 (osteosarcoma); SAOS-2, 48 h) [%] | activity at 10 µM ([9]; 48 h) [%] | also measured
1 | COc1cc2c(c(O)c1OC)[C@@]13CC[C@H](OC)C[C@@H]1N(CC3)C2O (stereo partly shown) [Compound 10, zephyranine F] | 78 | 99 | 89 | 81 | 97 | 77 | 88 | 82 | 113 | 73 | > 50 | –
2 | COc1cc2c(cc1OC)[C@@]13CC[C@@H](O)C[C@@H]1N(CC3)C2 [Compound 11] | 95 | 104 | 99 | 88 | 104 | 100 | 97 | 98 | 107 | 97 | > 50 | –
3 | O[C@@H]1C=C[C@]23CCN(Cc4cc5c(cc42)OCO5)[C@H]3C1 [Compound 14] | 92 | 79 | 91 | 80 | 83 | 84 | 84 | 100 | 98 | 79 | > 50 | –
4 | COc1cc2c(cc1OC)[C@@]13C=CC(O)C[C@@H]1N(CC3)C2 (stereo partly shown) [Compound 15, maritidine] | 100 | 98 | 104 | 95 | 104 | 91 | 93 | 101 | 94 | 94 | > 50 | GP value across the tested cell lines [9, 10]: lack of inhibitory activity
5 | COc1cc2c(cc1O)CN1CC[C@@]23C=CC(O)C[C@H]13 (stereo partly shown) [Compound 16] | 110 | 105 | 102 | 106 | 97 | 101 | 103 | 114 | 101 | 98 | > 50 | –
6 | COC1C=C[C@@]23CCN(Cc4cc5c(cc42)OCO5)[C@@H]3C1 (stereo partly shown) [Compound 17] | 32 | 49 | 52 | 60 | 82 | 77 | 71 | 75 | 55 | 76 | > 50 | growth percent (GP) MOLT-4 [1, 11]: slight inhibition of growth; growth percent (GP) MCF-7 [2, 11]: slight inhibition of growth
7 | COc1cc(-c2cccc3c2N(C)CC3)c(CN2CC[C@@]34C=C[C@H](O)C[C@@H]3Oc3c(OC)ccc(c34)C2)c(OC)c1OC [Compound 18, narcielline] | 95 | 115 | 103 | 110 | 111 | 111 | 106 | 90 | 88 | 106 | > 50 | –
8 | COc1cc2c(c(OC)c1OC)[C@@H](O)O[C@@H]1CC=C3CCN(C)[C@H]3[C@H]21 [Compound 21] | – | – | – | – | – | – | – | – | – | – | – | activity at 10 µM [1, 12]: 93%; activity at 10 µM [2, 13]: 92%; activity at 10 µM [3, 14]: 91%; activity at 10 µM (A549 (lung carcinoma); [15]): 101%; activity at 10 µM [4, 16]: 101%; activity at 10 µM [5, 17]: 90%; activity at 10 µM [6, 18]: 83%; activity at 10 µM [7, 14]: 112%; activity at 10 µM [8, 19]: 95%; activity at 10 µM (SAOS-2 (osteosarcoma); [20]): 105%; activity at 10 µM [9, 10]: > 50%
9 | COc1cc2c(cc1O)C(=O)O[C@@H]1CC=C3CCN(C)[C@H]3[C@H]21 [Compound 22] | 100 | 102 | 100 | 109 | 93 | 92 | 106 | 96 | 94 | 103 | > 50 | –
10 | COc1cc2c(cc1OC)[C@@H]1[C@H](O)[C@@H](O)C=C3CCN(C2)[C@H]31 [Compound 24] | 103 | 104 | 109 | 104 | 96 | 109 | 114 | 116 | 99 | 98 | > 50 | –
11 | COc1cc2c(cc1O)[C@@H]1[C@H](O)[C@@H](OC)C=C3CCN(C2)[C@H]31 [Compound 25] | – | – | – | – | – | – | – | – | – | – | – | activity at 10 µM [1, 12]: 88%; activity at 10 µM [2, 13]: 102%; activity at 10 µM [3, 14]: 91%; activity at 10 µM (A549 (lung carcinoma); [15]): 83%; activity at 10 µM [4, 16]: 92%; activity at 10 µM [5, 17]: 83%; activity at 10 µM [6, 18]: 94%; activity at 10 µM [7, 14]: 110%; activity at 10 µM [8, 19]: 125%; activity at 10 µM (SAOS-2 (osteosarcoma); [20]): 71%; activity at 10 µM [9, 10]: > 50%
